≈ marks a conversion by molar mass, not a printed value.
Test system: not listed separately
Experiment: Aqueous solubility of the compound at pH 7.4
Assay type: physicochemical
Settings: not given

| SMILES | solubility |
| --- | --- |
| COc1cc(C(=O)N[C@H]2CCCN(Cc3ccc(Br)cc3)C2)ccc1-n1cnc(C)c1 | 8 µg/mL (≈ 16.5 µM) |

Test system: not listed separately
Experiment: Permeability of the compound at pH 7.4 by PAMPA
Assay type: ADME
Settings: read-out: permeability

| SMILES | Papp |
| --- | --- |
| COc1cc(C(=O)N[C@H]2CCCN(Cc3ccc(Br)cc3)C2)ccc1-n1cnc(C)c1 | 50 ×10⁻⁶ cm/s |

Test system: not listed separately
Experiment: Modulation of gamma-secretase in rat fetus primary neurons assessed as inhibition of amyloid beta42 production after 1 to 3 days by ELISA
Settings: not given

| SMILES | IC50 |
| --- | --- |
| COc1cc(C(=O)N[C@H]2CCCN(Cc3ccc(Br)cc3)C2)ccc1-n1cnc(C)c1 | 250 nM |

Test system: Mus musculus
Experiment: Reduction in amyloid beta42 production in wild type mouse hippocampus at 100 mg/kg, po
Assay type: functional
Parameters: scale not given: the % may be the effect or the level left
Settings: not given

| SMILES | Activity |
| --- | --- |
| COc1cc(C(=O)N[C@H]2CCCN(Cc3ccc(Br)cc3)C2)ccc1-n1cnc(C)c1 | 55% |

Test system: Mus musculus
Experiment: Reduction in amyloid beta42 production in wild type mouse plasma at 100 mg/kg, po
Assay type: functional
Parameters: scale not given: the % may be the effect or the level left
Settings: not given

| SMILES | Activity |
| --- | --- |
| COc1cc(C(=O)N[C@H]2CCCN(Cc3ccc(Br)cc3)C2)ccc1-n1cnc(C)c1 | 66% |

Species: Rattus norvegicus
Experiment: Modulation of gamma-secretase in rat fetus primary neurons assessed as inhibition of amyloid beta42 production at 2.5 uM after 1 to 3 days by ELISA
Settings: not given

| SMILES | inhibition |
| --- | --- |
| COc1cc(C(=O)N[C@H]2CCCN(Cc3ccc(C)cc3)C2)ccc1-n1cnc(C)c1 | 90% |
| COc1cc(C(=O)NC2CCCN(C(=O)NCc3ccccc3)C2)ccc1-n1cnc(C)c1 (racemic) | 25% |
| COc1cc(C(=O)NC2CCCN(Cc3ccc(C(F)(F)F)cc3)C2)ccc1-n1cnc(C)c1 (racemic) | 90% |
| COc1ccc(CN2CCCC(NC(=O)c3ccc(-n4cnc(C)c4)c(OC)c3)C2)cc1 (racemic) | 45% |
| COc1cc(C(=O)NC2CCCN(Cc3ccccc3C)C2)ccc1-n1cnc(C)c1 (racemic) | 62% |
| COc1cc(C(=O)NC2CCCN(Cc3ccccc3)C2)ccc1-n1cnc(C)c1 (racemic) | 37% |
| COc1cc(C(=O)NC2CCN(Cc3cccc(C(F)(F)F)c3)C2)ccc1-n1cnc(C)c1 (configuration not stated) | 31% |
| COc1cc(C(=O)N[C@H]2CCCN(C(=O)c3ccc(C(F)(F)F)cc3)C2)ccc1-n1cnc(C)c1 | 34% |
| COc1cc(C(=O)N[C@@H]2CCCN(Cc3ccc(C(F)(F)F)cc3)C2)ccc1-n1cnc(C)c1 | 57% |
| COc1cc(C(=O)N2CCN(Cc3cccc(C(F)(F)F)c3)CC2)ccc1-n1cnc(C)c1 | 18% |
| COc1cc(C(=O)N[C@@H]2CCCN(Cc3ccc(Br)cc3)C2)ccc1-n1cnc(C)c1 | 55% |
| COc1cc(C(=O)N[C@@H]2CCCN(Cc3ccc(C)cc3)C2)ccc1-n1cnc(C)c1 | 36% |
| COc1cc(C(=O)N[C@H]2CCCN(C(=O)c3ccc(C)cc3)C2)ccc1-n1cnc(C)c1 | 55% |
| COc1cc(C(=O)N[C@H]2CCCN(C(=O)c3ccc(Br)cc3)C2)ccc1-n1cnc(C)c1 | 64% |
| COc1cc(C(=O)N2C3CCC2CN(Cc2cccc(C(F)(F)F)c2)C3)ccc1-n1cnc(C)c1 | 19% |
| COc1cc(C(=O)NC2CCCN(Cc3cccc(C)c3)C2)ccc1-n1cnc(C)c1 (racemic) | 54% |

| SMILES | inhibition |
| --- | --- |
| COc1cc(C(=O)N(C)C2CCCN(Cc3cccc(C(F)(F)F)c3)C2)ccc1-n1cnc(C)c1 (configuration not stated) | < 1% |
| COc1cc(C(=O)N(C(C)C)C2CCCN(Cc3cccc(C(F)(F)F)c3)C2)ccc1-n1cnc(C)c1 (configuration not stated) | < 1% |
| COc1cc(C(=O)NC2CCCN(C(=O)NCc3ccc(C)cc3)C2)ccc1-n1cnc(C)c1 (racemic) | 28% |
| COc1cc(C(=O)N2CCC(NCc3cccc(C(F)(F)F)c3)C2)ccc1-n1cnc(C)c1 (configuration not stated) | 39% |
| COc1cc(C(=O)NC2CCN(Cc3cccc(C(F)(F)F)c3)CC2)ccc1-n1cnc(C)c1 | 78% |
| COc1cc(C(=O)N[C@H]2CCCN(Cc3ccc(C(F)(F)F)cc3)C2)ccc1-n1cnc(C)c1 | 92% |
| COc1cc(C(=O)NC2CCCN(Cc3ccc(Br)cc3)C2)ccc1-n1cnc(C)c1 (racemic) | 93% |
| COc1cc(C(=O)NC2CCCN(Cc3ccc(C)cc3)C2)ccc1-n1cnc(C)c1 (racemic) | 82% |
| COc1cc(C(=O)NC2CC3CCC(C2)N3Cc2cccc(C(F)(F)F)c2)ccc1-n1cnc(C)c1 (configuration not stated) | 40% |
| COc1cc(C(=O)N2CCCC(NCc3cccc(C(F)(F)F)c3)C2)ccc1-n1cnc(C)c1 (configuration not stated) | 17% |
| COc1cc(C(=O)N[C@H]2CCCN(Cc3ccc(Br)cc3)C2)ccc1-n1cnc(C)c1 | 97% |
| COc1cc(C(=O)NC2CCCN(C(=O)NCc3ccc(Br)cc3)C2)ccc1-n1cnc(C)c1 (racemic) | 47% |
| COc1cc(C(=O)N2CC3CC2CN3Cc2cccc(C(F)(F)F)c2)ccc1-n1cnc(C)c1 (configuration not stated) | 51% |
| COc1cc(C(=O)N[C@H]2CCCN(Cc3cccc(C(F)(F)F)c3)C2)ccc1-n1cnc(C)c1 | 82% |
| COc1cc(C(=O)N[C@@H]2CCCN(Cc3cccc(C(F)(F)F)c3)C2)ccc1-n1cnc(C)c1 | 72% |
| CCN(C(=O)c1ccc(-n2cnc(C)c2)c(OC)c1)C1CCCN(Cc2cccc(C(F)(F)F)c2)C1 (configuration not stated) | < 1% |

Reference: ChEMBL document CHEMBL3098061, “Design and synthesis of an aminopiperidine series of γ-secretase modulators” (Bioorg Med Chem Lett, 2014)
